We go through 10 compounds from PubChem BioAssay (NCI).

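Five concentrations, 48 hours, 96-well plates. Abbreviation: GI50, concentration required for 50% inhibition of growth. Definition used: TGI = concentration required for complete inhibition of growth.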

Holding throughout (assay): growth of human tumour cells (NCI), 48 h
The subject of experiment [1] is DU-145 prostate.
Experiment [2] deals with HCT-116 colon.
Experiment [3] deals with HCT-15 colon.
Experiment [4] has as its system IGROV1 ovarian.
Experiment [5] concerns K-562 leukemia.
For experiment [6], the system named is NCI-H522 lung.
For experiment [7], the system named is SF-295 CNS.
The test system of experiment [8] is TK-10 renal.
In experiment [9] the test system is UACC-257 melanoma.
Experiment [10] deals with RPMI-8226 leukemia.

Turning to `COc1ccc(CCN2CCc3c(C)c(C#N)c4nc5ccccc5n4c32)cc1OC`, the TGI in experiment [1] is over 100 µM; in experiment [2] it was over 100 µM; in [3] it was over 100 µM; in experiment [4], over 100 µM; in experiment [5] it was 55.7 µM; in [6] it was 57 µM. In addition, the TGI in experiment [7], in [8] and in experiment [9] was over 100 µM throughout.
`COc1cc(NC(=O)Nc2cnc(Nc3ccc(N4CCOCC4)cc3)nc2Oc2cccc(OC)c2)cc(OC)c1`: the GI50 was 1.73 µM in [1]; 1.1 µM in experiment [2]; 5.35 µM in experiment [3]; 1.8 µM in [4]; 1.44 µM in [6]; 1.19 µM in experiment [7]. The GI50 is 1.11 µM in experiment [8] and 3.36 µM in [9]. Also, the TGI in experiment [1] was 5.82 µM; in experiment [2] it was 2.74 µM; in [3], over 50 µM; in [4] it was 7.77 µM; in experiment [6], 6.25 µM; in [7] it was 3.61 µM. The TGI in experiment [8] came to 2.85 µM; in experiment [9], 16.8 µM.
As for `CC1CC2(C)CC(=O)C1C1C(=O)N(CCN3CCCCC3)C(=O)C12` (stereo not given), the GI50 in experiment [1], in [2], in experiment [3], in experiment [4], in experiment [5] and in experiment [6] was over 100 µM each time. Besides, the GI50 in [7], in experiment [8] and in [9] was over 100 µM in each case. In addition, the TGI in experiment [1], in experiment [2], in [3], in [4], in experiment [5] and in experiment [6] was over 100 µM each time. Also, the TGI in experiment [7], in [8] and in [9] was over 100 µM in each case.
For the compound `CC(=O)Oc1ccc2c(c1)CC[C@@H]1C2CC[C@]2(C)C(=O)NC(=O)CC12` (stereo not given in full), the TGI in [1], in [2], in experiment [4], in [5], in experiment [6] and in [7] was over 100 µM in each case. In addition, the TGI in [8] and in experiment [9] was over 100 µM each time.
Take `COc1cc2cc3c4c(cc(OC)c(OC)c4c2cc1OC)CCN3C(=O)CCC(=O)NCCCN(C)C`: the TGI in experiment [2] is over 100 µM; in [3], over 100 µM; in [4] it was over 100 µM; in experiment [5], over 100 µM; in [6], 45.8 µM; in experiment [10], over 100 µM. In addition, the TGI in experiment [7], in experiment [8] and in experiment [9] was over 100 µM each time.
On to `C/C=C1\C(=O)OC2CCN3CCC(COC(=O)C(C)(O)C(C)C1O)C23` (stereo not given), for which the TGI in [1], in [2], in experiment [3], in experiment [4], in experiment [5] and in [6] was over 100 µM throughout. Moreover, the TGI in experiment [7], in [8] and in experiment [9] was over 100 µM in each case.
For the compound `COc1ccc2nc3ccccc3c(NCCCCN(C)CCCl)c2c1`, the TGI in [2] came to 0.303 µM; in experiment [3] it was 0.494 µM; in [4], 0.877 µM; in experiment [5], 0.93 µM; in experiment [6], 0.0763 µM; in experiment [10], 0.544 µM. Further, the TGI was 1.17 µM in [7], over 31.9 µM in experiment [8] and 4.93 µM in experiment [9].
Regarding `CCSC(SCC)=C1C(=O)N(c2ccccc2)N=C1C`, the TGI in [2] is 28.3 µM; in [3], 24.7 µM; in experiment [4], 33.2 µM; in experiment [5] it was 23.3 µM; in experiment [6] it was 5.05 µM; in experiment [10] it was 27 µM. Also, the results for the TGI in [7], in experiment [8] and in [9] were 73.5 µM, 22.2 µM and 18.5 µM, respectively.
Take `C[C@]12CC[C@H](OC3CCCCO3)CC1=CC[C@@H]1C2CC[C@]2(C)/C(=N/O)CCC12` (stereo not given in full): the TGI was 29.6 µM in experiment [2]; 44.5 µM in experiment [3]; over 100 µM in [4]; over 100 µM in experiment [5]; 31.1 µM in experiment [6]; 40 µM in [10]. Moreover, the TGI stood at 34.9 µM in experiment [7], 70.1 µM in experiment [8] and 79.8 µM in experiment [9].
Turning to `CC(=O)C1C(=O)N(C(C)C)C[C@@H]2CCC(=O)C[C@H]12` (stereo not given in full), the TGI in experiment [2], in [3], in experiment [4], in experiment [5], in experiment [6] and in experiment [10] was over 100 µM in each case. For the same compound, the TGI in experiment [7], in experiment [8] and in [9] was over 100 µM in each case.
